A value given as a limit tells only on which side of the number the result lay.

The target in assay [1] is T1, BCR-KIT BaF3 cells (Homo sapiens, UniProt P10721).
T1 construct: fused on or other part: P11274 (Breakpoint cluster region protein)
Put plainly: BaF3 BCR-KIT cell proliferation assay (ATPlite). Format: cell-based. As to conditions: read-out: Inhibition of Cell Proliferation IC50, BCR/BaF3 Kit. The method in brief: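 ATP-based luminescence (ATPlite), read after 10 min at room temperature, served as a proxy for cell number, and IC50 was fitted against compound concentration. Before that, cells were treated for 3 days with an 8-point 1:3 dilution series starting at 10 μM. BaF3 cells were plated at 10,000/well without IL-3, and MV-4-11 cells at 25,000/well.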

Assay [2] deals with CYP2C9 (Homo sapiens, UniProt P11712). The assay can be described thus: CYP2C9 inhibition (fluorescent substrate MFC). The assay is classed as in vitro ADME. As to conditions: read-out: Cyp IC50 2C9. The method in brief: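 Compounds, serially diluted 1:1 over 10 points in NADPH-regenerating cofactor mix with 5% acetonitrile, were preincubated 10 min at 37 °C, then run with enzyme and substrate at 37 °C (CYP1A2 15 min; CYP2C9 45 min; CYP2C19, CYP2D6 30 min). Product fluorescence gave IC50s.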
CYP2C9, sequence (P11712 whole entry): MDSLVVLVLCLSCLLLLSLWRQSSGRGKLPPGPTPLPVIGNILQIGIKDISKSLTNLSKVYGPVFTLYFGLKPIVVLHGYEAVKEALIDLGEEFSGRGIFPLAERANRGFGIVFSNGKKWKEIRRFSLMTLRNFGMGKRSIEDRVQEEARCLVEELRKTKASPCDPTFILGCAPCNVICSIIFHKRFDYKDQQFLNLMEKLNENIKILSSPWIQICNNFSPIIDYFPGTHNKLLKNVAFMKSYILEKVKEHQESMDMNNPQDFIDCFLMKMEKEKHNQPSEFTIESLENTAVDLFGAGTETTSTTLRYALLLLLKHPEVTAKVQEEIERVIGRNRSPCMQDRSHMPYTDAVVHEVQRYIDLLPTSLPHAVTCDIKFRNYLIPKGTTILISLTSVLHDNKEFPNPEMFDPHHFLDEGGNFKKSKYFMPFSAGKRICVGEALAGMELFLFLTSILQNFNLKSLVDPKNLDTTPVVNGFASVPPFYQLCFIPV

The target of assay [3] is CYP3A4(BFC) (Homo sapiens, UniProt P08684). The assay can be described thus: CYP3A4(BFC) inhibition. The assay is classed as in vitro ADME. As to conditions: CYP3A4, substrate BFC; read-out: Cyp IC50 3A4(BFC). An outline of the steps: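 Inhibition of human CYP3A4 with the BFC substrate was measured by fluorescence loss of the metabolized product. Compounds at 100 mM in DMSO were diluted 1 μL into 82 μL acetonitrile, then 11 μL into 204 μL cofactor mix with NADPH regeneration solutions, and serially diluted 1:1 to 10 points. Plates were incubated 30 min at 37° C and read at 409 ex/460 em to obtain IC50.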
CYP3A4(BFC), sequence (P08684 whole entry): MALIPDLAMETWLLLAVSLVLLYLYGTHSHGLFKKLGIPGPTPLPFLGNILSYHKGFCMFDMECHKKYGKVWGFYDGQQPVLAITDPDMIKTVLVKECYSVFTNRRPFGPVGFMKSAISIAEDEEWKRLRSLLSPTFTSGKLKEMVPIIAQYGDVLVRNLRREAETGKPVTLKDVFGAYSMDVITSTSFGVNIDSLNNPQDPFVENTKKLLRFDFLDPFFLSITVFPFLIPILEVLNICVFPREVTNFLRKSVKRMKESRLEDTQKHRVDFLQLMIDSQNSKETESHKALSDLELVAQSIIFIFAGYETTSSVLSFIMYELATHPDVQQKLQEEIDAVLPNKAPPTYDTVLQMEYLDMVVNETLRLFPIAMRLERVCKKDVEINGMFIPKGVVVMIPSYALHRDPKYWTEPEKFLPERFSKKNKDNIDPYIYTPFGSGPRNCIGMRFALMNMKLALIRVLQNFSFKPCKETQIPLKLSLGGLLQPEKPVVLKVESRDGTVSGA

T1 sequence (P10721 589-937): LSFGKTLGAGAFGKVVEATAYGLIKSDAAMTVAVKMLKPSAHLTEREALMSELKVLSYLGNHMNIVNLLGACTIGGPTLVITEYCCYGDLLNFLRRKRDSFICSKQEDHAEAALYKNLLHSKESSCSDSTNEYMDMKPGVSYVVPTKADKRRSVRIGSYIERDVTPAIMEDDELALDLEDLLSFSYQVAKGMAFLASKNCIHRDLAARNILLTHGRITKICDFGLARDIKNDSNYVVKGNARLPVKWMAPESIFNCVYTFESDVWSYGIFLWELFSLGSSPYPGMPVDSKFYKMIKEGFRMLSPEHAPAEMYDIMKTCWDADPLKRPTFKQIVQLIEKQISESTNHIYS

For `COCCOc1ncnc2[nH]cc(Cc3ccc(Nc4ccc(C)nc4)nc3F)c12` [Compound P-4015, {6-Fluoro-5-[4-(2-methoxy-ethoxy)-7H-pyrrolo[2,3-d]pyrimidin-5-ylmethyl]-pyridin-2-yl}-(6-methyl-pyridin-3-yl)-amine], the IC50 in assay [1] was over 1 µM; in assay [2], over 10 µM; in assay [3], over 10 µM.
As for `CCc1ccc(Nc2ccc(Cc3c[nH]c4ncnc(OCCOC)c34)c(F)n2)cn1` [Compound P-4016, (6-Ethyl-pyridin-3-yl)-{6-fluoro-5-[4-(2-methoxy-ethoxy)-7H-pyrrolo[2,3-d]pyrimidin-5-ylmethyl]-pyridin-2-yl}-amine], the IC50 in assay [1] is under 0.1 µM; in assay [2] it was over 10 µM; in assay [3], over 10 µM.
As for `CCOc1ncnc2[nH]cc(Cc3ccc(Nc4ccc(C)nc4)nc3F)c12` [Compound P-4017, [5-(4-Ethoxy-7H-pyrrolo[2,3-d]pyrimidin-5-ylmethyl)-6-fluoro-pyridin-2-yl]-(6-methyl-pyridin-3-yl)-amine], the IC50 was under 1 µM in assay [1], over 10 µM in assay [2] and over 10 µM in assay [3].
As to `CCOc1ncnc2[nH]cc(Cc3ccc(Nc4ccc(OC)nc4)nc3F)c12` [Compound P-4018, [5-(4-Ethoxy-7H-pyrrolo[2,3-d]pyrimidin-5-ylmethyl)-6-fluoro-pyridin-2-yl]-(6-methoxy-pyridin-3-yl)-amine], the IC50 is under 1 µM in assay [1], over 10 µM in assay [2] and 5 to 10 µM in assay [3].
For the molecule `COCCOc1ncnc2[nH]cc(Cc3ccc(Nc4ccc(OC)nc4)nc3F)c12` [Compound P-4019, {6-Fluoro-5-[4-(2-methoxy-ethoxy)-7H-pyrrolo[2,3-d]pyrimidin-5-ylmethyl]-pyridin-2-yl}-(6-methoxy-pyridin-3-yl)-amine], the IC50 was under 1 µM in assay [1], over 10 µM in assay [2] and 5 to 10 µM in assay [3].
`COc1ccc(Nc2ccc(C(=O)c3c[nH]c4ncnc(C5CC5)c34)c(F)n2)cn1` [Compound P-4022, (4-cyclopropyl-7H-pyrrolo[2,3-d]pyrimidin-5-yl)-[2-fluoro-6-(6-methoxy-pyridin-3-ylamino)-pyridin-3-yl]-methanone]: the IC50 was under 1 µM in assay [1], over 10 µM in assay [2] and 5 to 10 µM in assay [3].
Taken in the same sequence, the figures for `COc1ccc(Nc2ccc(Cc3c[nH]c4ncnc(C5CC5)c34)c(F)n2)cn1` [Compound P-4023, [5-(4-cyclopropyl-7H-pyrrolo[2,3-d]pyrimidin-5-ylmethyl)-6-fluoro-pyridin-2-yl]-(6-methoxy-pyridin-3-yl)-amine] were under 1 µM, over 10 µM and under 5 µM.
On to `CCOc1ccc(Nc2ccc(C(=O)c3c[nH]c4ncnc(OC)c34)c(F)n2)cn1` [Compound P-4024, [6-(6-Ethoxy-pyridin-3-ylamino)-2-fluoro-pyridin-3-yl]-(4-methoxy-7H-pyrrolo[2,3-d]pyrimidin-5-yl)-methanone], for which the IC50 in assay [1] is under 1 µM; in assay [2] it was over 10 µM; in assay [3], under 5 µM.
On to `CCOc1ncnc2[nH]cc(C(=O)c3ccc(Nc4ccc(OC)nc4)nc3F)c12` [Compound P-4025, (4-Ethoxy-7H-pyrrolo[2,3-d]pyrimidin-5-yl)-[2-fluoro-6-(6-methoxy-pyridin-3-ylamino)-pyridin-3-yl]-methanone], for which the IC50 in assay [1] was over 1 µM; in assay [2] it was over 10 µM; in assay [3] it was under 5 µM.
Taken in the same sequence, the figures for `CCc1ccc(Nc2ccc(Cc3c[nH]c4ncnc(C5CC5)c34)c(F)n2)cn1` [Compound P-4028, [5-(4-Cyclopropyl-7H-pyrrolo[2,3-d]pyrimidin-5-ylmethyl)-6-fluoro-pyridin-2-yl]-(6-ethyl-pyridin-3-yl)-amine] were under 1 µM, 5 to 10 µM and over 10 µM.
For `CCc1ccc(Nc2ccc(C(=O)c3c[nH]c4ncnc(C5CC5)c34)c(F)n2)cn1` [Compound P-4029, (4-Cyclopropyl-7H-pyrrolo[2,3-d]pyrimidin-5-yl)-[6-(6-ethyl-pyridin-3-ylamino)-2-fluoro-pyridin-3-yl]-methanone], in that order: under 0.1 µM, over 10 µM and over 10 µM.
Turning to `Cc1ccc(Nc2ccc(Cc3c[nH]c4ncnc(C5CC5)c34)c(F)n2)cn1` [Compound P-4030, [5-(4-Cyclopropyl-7H-pyrrolo[2,3-d]pyrimidin-5-ylmethyl)-6-fluoro-pyridin-2-yl]-(6-methyl-pyridin-3-yl)-amine], the IC50 in assay [1] is under 1 µM; in assay [2], over 10 µM; in assay [3], over 10 µM.
For `Cc1ccc(Nc2ccc(C(=O)c3c[nH]c4ncnc(C5CC5)c34)c(F)n2)cn1` [Compound P-4031, (4-Cyclopropyl-7H-pyrrolo[2,3-d]pyrimidin-5-yl)-[2-fluoro-6-(6-methyl-pyridin-3-ylamino)-pyridin-3-yl]-methanone], the IC50 in assay [1] was under 1 µM; in assay [2], over 10 µM; in assay [3], over 10 µM.
As for `CCn1cc(Nc2ccc(Cc3c[nH]c4ncnc(C5CC5)c34)c(F)n2)cn1` [Compound P-4036, [5-(4-Cyclopropyl-7H-pyrrolo[2,3-d]pyrimidin-5-ylmethyl)-6-fluoro-pyridin-2-yl]-(1-ethyl-1H-pyrazol-4-yl)-amine], the IC50 is under 1 µM in assay [1], 5 to 10 µM in assay [2] and 5 to 10 µM in assay [3].
Regarding `CCn1cc(Nc2ccc(C(=O)c3c[nH]c4ncnc(C5CC5)c34)c(F)n2)cn1` [Compound P-4037, (4-Cyclopropyl-7H-pyrrolo[2,3-d]pyrimidin-5-yl)-[6-(1-ethyl-1H-pyrazol-4-ylamino)-2-fluoro-pyridin-3-yl]-methanone], the results for the IC50 in assay [1], in assay [2] and in assay [3] were under 0.1 µM, 5 to 10 µM and 5 to 10 µM, respectively.
`Fc1nc(NC2CCC(F)(F)CC2)ccc1Cc1c[nH]c2ncnc(NCC(F)(F)F)c12` [Compound P-4128, 5-[[6-[(4,4-difluorocyclohexyl)amino]-2-fluoro-3-pyridyl]methyl]-N-(2,2,2-trifluoroethyl)-7H-pyrrolo[2,3-d]pyrimidin-4-amine]: the results for the IC50 in assay [1], in assay [2] and in assay [3] were under 1 µM, over 10 µM and over 10 µM, respectively.
On to `Fc1nc(NC2CCC(F)(F)CC2)ccc1Cc1c[nH]c2ncnc(NC3CC3)c12` [Compound P-4129, N-cyclopropyl-5-[[6-[(4,4-difluorocyclohexyl)amino]-2-fluoro-3-pyridyl]methyl]-7H-pyrrolo[2,3-d]pyrimidin-4-amine], for which the IC50 is under 1 µM in assay [1], 5 to 10 µM in assay [2] and under 5 µM in assay [3].
Consider `Fc1nc(Nc2ccc(C3CC3)nc2)ccc1Cc1c[nH]c2ncnc(NCC(F)(F)F)c12` [Compound P-4130, 5-[[6-[(6-cyclopropyl-3-pyridyl)amino]-2-fluoro-3-pyridyl]methyl]-N-(2,2,2-trifluoroethyl)-7H-pyrrolo[2,3-d]pyrimidin-4-amine], for which the IC50 in assay [1] was over 1 µM; in assay [2] it was over 10 µM; in assay [3], under 5 µM.

For the origin of these results see patent publication US8901118B2, “Compounds and methods for kinase modulation, and indications therefor” (Plexxikon Inc., priority 2010, dated 2014).
